What follows are compounds tested on apyrase (assay: Screen for apyrase inhibitors (Method 1, in vitro phosphate-release absorbance assay)). Conditions: inhibitor conc at 1 mM stock, 1 hr room temperature, absorbance 630 nm; rounded average of two assay results.
Format: biochemical
Method in brief: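 Phosphate-release colorimetric assay (Windsor method) in 60 mM Hepes, 3 mM MgCl2, 3 mM CaCl2, 3 mM ATP, pH 6.5, with compound or DMSO control added. Released phosphate developed with ammonium molybdate and ascorbic acid/TCA, then stopped with citrate/acetic acid.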
With `O=C(c1ccc(NS(=O)(=O)c2ccc3c(c2)OCCO3)cc1)N1CCCc2ccccc21` [I-912, N-(4-(1,2,3,4-tetrahydroquinoline-1-carbonyl)phenyl)-2,3-dihydrobenzo[b][1,4]dioxine-6-sulfonamide] the “% Inhibition of Apyrase” value was 59%.
For `Cc1cccc(NC(=O)c2ccc(NS(=O)(=O)c3ccc(Br)cc3)cc2)c1C` [I-913, 4-((4-bromophenyl)sulfonamido)-N-(2,3-dimethylphenyl)benzamide], the “% Inhibition of Apyrase” value was 59%.
`CCOc1ccc(NC(=O)c2ccc(NS(=O)(=O)c3ccccc3)cc2)cc1` [I-914, N-(4-ethoxyphenyl)-4-(phenylsulfonamido)benzamide] was tested, and the “% Inhibition of Apyrase” value was 59%.
`COc1ccccc1NC(=O)c1ccc(NS(=O)(=O)c2ccc(Cl)c(C(F)(F)F)c2)cc1` [I-915, 4-((4-chloro-3-(trifluoromethyl)phenyl)sulfonamido)-N-(2-methoxyphenyl)benzamide] was tested, and the “% Inhibition of Apyrase” value was 59%.
In the case of `COc1cccc(S(=O)(=O)Nc2ccc(C(=O)Nc3cccc(C(F)(F)F)c3)cc2)c1` [I-916, 4-((3-methoxyphenyl)sulfonamido)-N-(3-(trifluoromethyl)phenyl)benzamide], the “% Inhibition of Apyrase” value is reported as 58%.
For `Cc1ccc(NC(=O)c2ccc(NS(=O)(=O)c3ccccc3)cc2)cc1C` [I-917, N-(3,4-dimethylphenyl)-4-(phenylsulfonamido)benzamide], the “% Inhibition of Apyrase” value was 58%.
`Cc1ccc(NC(=O)c2ccc(NS(=O)(=O)c3ccc(F)cc3)cc2)cc1C` [I-918, N-(3,4-dimethylphenyl)-4-((4-fluorophenyl)sulfonamido)benzamide] was tested, and the “% Inhibition of Apyrase” value was 58%.
With `COc1ccccc1NC(=O)c1ccc(NS(=O)(=O)c2cccc(C(F)(F)F)c2)cc1` [I-919, N-(2-methoxyphenyl)-4-((3-(trifluoromethyl)phenyl)sulfonamido) benzamide] the “% Inhibition of Apyrase” value was 58%.
With `Cc1cc(S(=O)(=O)Nc2ccc(C(=O)Nc3ccc4c(c3)OCO4)cc2)ccc1F` [I-920, N-(benzo[d][1,3]dioxol-5-yl)-4-((4-fluoro-3-methylphenyl)sulfonamido)benzamide] the “% Inhibition of Apyrase” value was 57%.
For `O=C(Nc1ccc2c(c1)OCO2)c1ccc(NS(=O)(=O)c2ccc3c(c2)OCCO3)cc1` [I-921, N-(benzo[d][1,3]dioxol-5-yl)-4-((2,3-dihydrobenzo[b][1,4]dioxine)-6-sulfonamido)benzamide], the “% Inhibition of Apyrase” value was 57%.
For `Cc1ccc(C)c(S(=O)(=O)Nc2ccc(C(=O)Nc3cccc(C(F)(F)F)c3)cc2)c1` [I-922, 4-((2,5-dimethylphenyl)sulfonamido)-N-(3-(trifluoromethyl)phenyl)benzamide], the “% Inhibition of Apyrase” value was 57%.
In the case of `O=C(c1ccc(NS(=O)(=O)c2ccc3c(c2)OCCCO3)cc1)N1CCc2ccccc21` [I-923, N-(4-(indoline-1-carbonyl)phenyl)-3,4-dihydro-2H-benzo[b][1,4]dioxepine-7-sulfonamide], the “% Inhibition of Apyrase” value is reported as 57%.
With `Cc1ccc(NC(=O)c2ccc(NS(=O)(=O)c3ccc(F)c(F)c3)cc2)cc1F` [I-924, 4-((3,4-difluorophenyl)sulfonamido)-N-(3-fluoro-4-methylphenyl)benzamide] the “% Inhibition of Apyrase” value was 57%.
With `Cc1ccc(S(=O)(=O)N(C)c2ccc(C(=O)Nc3cc([N+](=O)[O-])ccc3C)cc2)cc1` [I-925, 4-((N,4-dimethylphenyl)sulfonamido)-N-(2-methyl-5-nitrophenyl)benzamide] the “% Inhibition of Apyrase” value was 56%.
In the case of `O=C(Nc1ccc(Cl)c(Cl)c1)c1ccc(NS(=O)(=O)c2ccc(F)c(F)c2)cc1` [I-926, N-(3,4-dichlorophenyl)-4-((3,4-difluorophenyl)sulfonamido)benzamide], the “% Inhibition of Apyrase” value is reported as 56%.
For `Cc1ccc(S(=O)(=O)Nc2ccc(C(=O)Nc3ccc(F)cc3)cc2)cc1C` [I-927, 4-((3,4-dimethylphenyl)sulfonamido)-N-(4-fluorophenyl)benzamide], the “% Inhibition of Apyrase” value was 56%.
With `N#Cc1cccc(NC(=O)c2ccc(NS(=O)(=O)c3ccc(Br)cc3)cc2)c1` [I-928, 4-((4-bromophenyl)sulfonamido)-N-(3-cyanophenyl)benzamide] the “% Inhibition of Apyrase” value was 56%.

Reference: patent US12685312B2, “Sulfonamide apyrase inhibitors” (Texas Crop Science, Inc., priority 2022, dated 2026)
